Assay results from patent publication US11396501B2, “Heteroaryl compounds as CXCR4 inhibitors, composition and method using the same” (CGENETECH (SUZHOU, CHINA) CO., LTD., priority 2017, dated 2022).

Target: CXCR4 (Homo sapiens, UniProt P61073)
Experiment: FLIPR Tetra calcium mobilization assay
Type: cell-based
Conditions: Human CD4+ T-Cells; CXCL12 added; FLIPR Calcium 4 assay kit
Method: FLIPR Tetra Calcium Mobilization Assay The FLIPR Tetra calcium mobilization assay was performed by HD Bioscience. Briefly, The Molecular Devices, Fluorescent Imaging Plate Reader (FLIPR) Tetra was used in this assay. Excitation was achieved through unique placement of LED's within the instrument and emission captured by a CCD camera (EMCCD camera for FI and ICCD camera for luminescence). The homogeneous FLIPR Calcium 4 assay kit from Molecular Devices was used as the fluorescence reagent. Compounds were solubilized in 100% dimethyl sulfoxide (DMSO) to a concentration of 30 mM. A 10-point, 4-fold, intermediate dilution series was created in 100% DMSO with a top concentration of 4 mM and a bottom concentration of 0.01 μM. A near assay ready, direct dilution plate ([…]) was prepared from this compound dilution plate by transferring 1 μL of each dilution of compound in 100% DMSO to a Greiner #781201 plate. In addition, each […] plate also contained positive and negative control wells to define the upper and lower limits for the assay signal. The final assay concentration range of compound was 10 μM to 0.035 nM in 0.5% DMSO. Human CD^4+ T-Cells were isolated from human whole blood and subsequently activated and expanded using a CD3/CD28 expansion kit (Life Technologies). The cells were frozen in ThermoFisher-formulated Recovery Cell Culture Freezing Medium containing 10% Dimethyl sulfoxide (DMSO) and 10% Fetal Bovine Serum (FBS) (ThermoFisher Catalog No. 10100147). When used, cells were resuspended using room temperature 1× HBSS/20 mM HEPES/0.005% P-104 assay buffer, adjusted the volume of the suspension to achieve a cell concentration of 2.5×10^6 cells/mL. 2× Calcium 4 dye (20 μL/well) were added and the mixture were centrifuged briefly ( 10 s) and stopped when it reached 1000 rpm. The plates were allowed to equilibrate before compounds and CXCL12 were added to the plates. The raw data were analyzed using Abase. The percent (%) effect at each concentration of compound was calculated by Abase and was based on and relative to the amount of calcium produced in the positive and negative control wells contained within each assay plate. The concentrations and % effect values for tested compounds were plotted by Abase and the concentration of compound required for 50% effect (IC50) was determined with a four-parameter logistic dose response equation. FIGS. 3 and 4 summarize the results of Compounds A78 and A83 in the calcium mobilization assay.

Chain of CXCR4 (P61073 whole entry): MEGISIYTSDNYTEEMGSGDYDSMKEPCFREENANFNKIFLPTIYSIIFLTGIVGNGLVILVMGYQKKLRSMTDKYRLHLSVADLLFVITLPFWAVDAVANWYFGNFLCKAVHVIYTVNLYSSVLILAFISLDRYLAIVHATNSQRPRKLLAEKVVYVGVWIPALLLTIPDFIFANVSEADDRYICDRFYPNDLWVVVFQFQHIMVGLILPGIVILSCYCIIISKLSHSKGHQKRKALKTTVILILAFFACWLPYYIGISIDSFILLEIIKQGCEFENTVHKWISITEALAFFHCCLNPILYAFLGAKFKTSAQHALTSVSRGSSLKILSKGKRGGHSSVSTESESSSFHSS

| IC50 [nM] | Structure (SMILES) |
| --- | --- |
| 0.2 | Cc1cccnc1[C@@H]1CCCN1Cc1cn2c(N3CCN(C)CC3)cccc2n1 [Compound C38, (S)-5-(4-methylpiperazin-1-yl)-2-((2-(3-methylpyridin-2-yl)pyrrolidin-1-yl)methyl)imidazo11,2-alpyridine] |
| 0.1 | Cc1cccnc1[C@@H]1CCCN1Cc1nc2cccc(N3CCN(C)CC3)n2c1CO [Compound C39, (S)-(5-(4-methylpiperazin-1-yl)-2-((2-(3-methylpyridin-2-yl)pyrrolidin-1-yl)methyl)imidazo[1,2-a]pyridin-3-yl)methanol] |
| 0.63 | Cc1nc(CN(C)c2cccc3cccnc23)cc(N2CCCN(C)CC2)n1 [Compound D3] |
| 2.1 | Cc1nc(CN(C)c2cccc3cccnc23)cc(N2CCN(CCO)CC2)n1 [Compound D5] |
| 2.4 | Cc1nc(CN(C)c2cccc3cccnc23)cc(N2CCC(N(C)C)CC2)n1 [Compound D6] |
| 0.75 | Cc1nc(CN(C)c2cccc3cccnc23)cc(N2CCC(N(C)C)C2)n1 (stereo not drawn) [Compound D7] |
| 1.4 | Cc1nc(CN(C)c2cccc3cccnc23)cc(N2CCN(C3CC3)CC2)n1 [Compound D8] |
| 0.59 | CCc1nc(CN(C)c2cccc3cccnc23)cc(N2CCN(C)CC2)n1 [Compound D9] |
| 2.9 | CN1CCN(c2cc(CN(C)c3cccc4cccnc34)nc(C3CC3)n2)CC1 [Compound D10] |
| 1700 | CN1CCN(c2cc(CN(C)c3cccc4cccnc34)nc(N(C)C)n2)CC1 [Compound D11] |
| 0.61 | CSc1nc(CN(C)c2cccc3cccnc23)cc(N2CCN(C)CC2)n1 [Compound D12] |
| 2.9 | COc1nc(CN(C)c2cccc3cccnc23)cc(N2CCN(C)CC2)n1 [Compound D13] |
| 0.4 | Cc1cc(N(C)Cc2cc(N3CCN(C)CC3)nc(C)n2)c2ncccc2c1 [Compound D15] |
| 2.7 | Cc1nc(CN(C)c2ccc(C)c3cccnc23)cc(N2CCN(C)CC2)n1 [Compound D16] |
| 74 | Cc1nc(CN(C)c2c(F)ccc3cccnc23)cc(N2CCN(C)CC2)n1 [Compound D17] |
| 0.79 | Cc1nc(CN(C)c2cc(F)cc3cccnc23)cc(N2CCN(C)CC2)n1 [Compound D18] |
| 0.4 | Cc1nc(CN(C)c2ccc(F)c3cccnc23)cc(N2CCN(C)CC2)n1 [Compound D19] |
| 1580 | Cc1nc(CN(C)c2nccc3cccnc23)cc(N2CCN(C)CC2)n1 [Compound D21, N-methyl-N-((2-methyl-6-(4-methylpiperazin-1-yl)pyrimidin-4-yl)methyl)-1,7-naphthyridin-8-amine] |
| 965 | Cc1nc(CN(C)c2cncc3cccnc23)cc(N2CCN(C)CC2)n1 [Compound D22, N-methyl-N-((2-methyl-6-(4-methylpiperazin-1-yl)pyrimidin-4-yl)methyl)-1,6-naphthyridin-8-amine] |
| 12400 | Cc1nc(CN(C)c2ncnc3cccnc23)cc(N2CCN(C)CC2)n1 [Compound D24] |
| 2.3 | Cc1nc(CN(c2cccc3cccnc23)C2CC2)cc(N2CCN(C)CC2)n1 [Compound D26] |
| 1.7 | Cc1nc(CN(CCCCNC(=O)OC(C)(C)C)c2cccc3cccnc23)cc(N2CCN(C)CC2)n1 [Compound D27] |
| 12.7 | Cc1nc(CN(CCCC(=O)OC(C)(C)C)c2cccc3cccnc23)cc(N2CCN(C)CC2)n1 [Compound D29] |
| 1.25 | Cc1nc(CN(CCCC(N)=O)c2cccc3cccnc23)cc(N2CCN(C)CC2)n1 [Compound D31, 4-(((2-methyl-6-(4-methylpiperazin-1-yl)pyrimidin-4-yl)methyl)(quinolin-8-yl)amino)butanamide] |
| 0.53 | CCN(Cc1cc(N2CCN(C)CC2)nc(C)n1)c1cc(C)cc2cccnc12 [Compound D32] |
| 0.51 | Cc1nc(CN(C)c2cccc3cccnc23)c(C)c(N2CCN(C)CC2)n1 [Compound D33] |

| IC50 [nM] | Structure (SMILES) |
| --- | --- |
| 0.83 | Cc1nc(CN(C)c2cccc3cccnc23)c(F)c(N2CCN(C)CC2)n1 [Compound D34] |
| 1.2 | Cc1nc(CN(C)c2cccc3cccnc23)c(Cl)c(N2CCN(C)CC2)n1 [Compound D35] |
| 0.95 | Cc1nc(CN(C)c2cccc3cccnc23)c(CO)c(N2CCN(C)CC2)n1 [Compound D37] |
| 0.18 | CN1CCN(c2cccc3nc(CN(C)c4cccc5cccnc45)cn23)CC1 [Compound D38] |
| 0.088 | CN1CCN(c2cccc3nc(CN(C)c4cccc5cccnc45)c(CO)n23)CC1 [Compound D39] |
| 2850 | Cc1nc(CN(C)c2ccc(C(F)(F)F)c3cccnc23)cc(N2CCN(C)CC2)n1 [Compound D40] |
| 6.3 | Cc1nc(CN(C)c2ccc(Br)c3cccnc23)cc(N2CCN(C)CC2)n1 [Compound D41] |
| 96 | Cc1nc(CN(C)c2ccc(C#N)c3cccnc23)cc(N2CCN(C)CC2)n1 [Compound D42] |
| 3380 | Cc1nc(CN(C)c2ccc(S(C)(=O)=O)c3cccnc23)cc(N2CCN(C)CC2)n1 [Compound D43, N-methyl-N-((2-methyl-6-(4-methylpiperazin-1-yl)pyrimidin-4-yl)methyl)-5-(methylsulfonyl)quinolin-8-amine] |
| 104 | Cc1nc(CN(C)c2cc(C(F)(F)F)cc3cccnc23)cc(N2CCN(C)CC2)n1 [Compound D44] |
| 3 | Cc1nc(CN(C)c2cc(Br)cc3cccnc23)cc(N2CCN(C)CC2)n1 [Compound D45] |
| 53 | Cc1nc(CN(C)c2cc(C#N)cc3cccnc23)cc(N2CCN(C)CC2)n1 [Compound D46] |
| 13 | Cc1nc(CN(C)c2cc(S(C)(=O)=O)cc3cccnc23)cc(N2CCN(C)CC2)n1 [Compound D47] |
| 928 | Cc1nc(CN(C)c2c(C(F)(F)F)ccc3cccnc23)cc(N2CCN(C)CC2)n1 [Compound D48] |
| 4.5 | Cc1nc(CN(C)c2c(Br)ccc3cccnc23)cc(N2CCN(C)CC2)n1 [Compound D49] |
| 14 | Cc1nc(CN(C)c2c(C#N)ccc3cccnc23)cc(N2CCN(C)CC2)n1 [Compound D50, 8-(methyl((2-methyl-6-(4-methylpiperazin-1-yl)pyrimidin-4-yl)methyl)amino)quinoline-7-carbonitrile] |
| 2090 | Cc1nc(CN(C)c2c(S(C)(=O)=O)ccc3cccnc23)cc(N2CCN(C)CC2)n1 [Compound D51] |
| 4.5 | Cc1nc(CN(C)c2cc(F)cc3cccnc23)cc(N2CCN(C)CC2CO)n1 (stereo not drawn) [Compound D52] |
| 6.7 | Cc1nc(CN(C)c2cc(F)cc3cccnc23)cc(N2CCN(C)C(CO)C2)n1 (stereo not drawn) [Compound D53] |
| 7.2 | CN1CCN(c2cc(CN(C)c3cccc4cccnc34)nc(CO)n2)CC1 [Compound D54] |
| 39 | Cc1nc(CN(C)c2cc(CO)cc3cccnc23)cc(N2CCN(C)CC2)n1 [Compound D55, (8-(methyl((2-methyl-6-(4-methylpiperazin-1-yl)pyrimidin-4-yl)methyl)amino)quinolin-6-yl)methanol] |
| 5.5 | Cc1nc(CN(C)c2c(CO)ccc3cccnc23)cc(N2CCN(C)CC2)n1 [Compound D56] |
| 2880 | Cc1nc(CN(C)c2ccc(NS(C)(=O)=O)c3cccnc23)cc(N2CCN(C)CC2)n1 [Compound D57, N-(8-(methyl((2-methyl-6-(4-methylpiperazin-1-yl)pyrimidin-4-yl)methyl)amino)quinolin-5-yl)methanesulfonamide] |
| 55 | Cc1nc(CN(C)c2cc(NS(C)(=O)=O)cc3cccnc23)cc(N2CCN(C)CC2)n1 [Compound D58, N-(8-(methyl((2-methyl-6-(4-methylpiperazin-1-yl)pyrimidin-4-yl)methyl)amino)quinolin-6-yl)methane sulfonamide] |
| 450 | Cc1nc(CN(C)c2c(NS(C)(=O)=O)ccc3cccnc23)cc(N2CCN(C)CC2)n1 [Compound D59] |
